Results from publication PMC11284788, “NN1213 – A Potent, Long-Acting, and Selective Analog of Human Amylin” (Journal of Medicinal Chemistry, 2024).
Numbered stars: 1 amine (or outer) side, 2 acyl side, 3 side chain; on linkers, the order of the positions; unused ones are H or OH. Bridge positions count the residues as written; N and C are the ends. Side chains are listed from the residue outwards. Peptide text beside a SMILES is read from it. * marks the point of attachment. C20 diacid = O=C(O)CCCCCCCCCCCCCCCCCCC(=O)*; γGlu = O=C(O)[C@H](CCC(=O)[*:2])N[*:1]

Experiments:
[1] = HMWP content by size-exclusion chromatography; format: physicochemical; conditions: analogs 10–21 (pH 4.0 series); covalent dimers and polymers prior to fibril formation testing, SEC, % of total absorbance area at 215 nm
Procedure, shortened: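 Amylin analogs analysed before fibril-formation testing by isocratic SEC in 0.5 M NaCl, 10 mM sodium dihydrogen phosphate, 5 mM ortho-phosphoric acid, 50% (v/v) 2-propanol. HMWP (covalent dimers/polymers) given as peak absorbance area percentage of total, assuming equal extinction coefficients for HMWP and main peak.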

hAMY3R = target: T1, hAMY3R (Homo sapiens, UniProt O60896+P30988); assay: scintillation proximity binding assay, hAMY3R membranes; set-up: expressed in transfected cells; host or cells: BHK tk-ts 13, transient co-transfection; membranes for the SPA, whole cells for the species-specific assays; conditions: for hAMY3R pIC50: SPA binding assay, Tables S13 and S15; for ratio hCTR/hAMY3R: ratio of binding IC50 values
T1 sequence (P30988 25-474): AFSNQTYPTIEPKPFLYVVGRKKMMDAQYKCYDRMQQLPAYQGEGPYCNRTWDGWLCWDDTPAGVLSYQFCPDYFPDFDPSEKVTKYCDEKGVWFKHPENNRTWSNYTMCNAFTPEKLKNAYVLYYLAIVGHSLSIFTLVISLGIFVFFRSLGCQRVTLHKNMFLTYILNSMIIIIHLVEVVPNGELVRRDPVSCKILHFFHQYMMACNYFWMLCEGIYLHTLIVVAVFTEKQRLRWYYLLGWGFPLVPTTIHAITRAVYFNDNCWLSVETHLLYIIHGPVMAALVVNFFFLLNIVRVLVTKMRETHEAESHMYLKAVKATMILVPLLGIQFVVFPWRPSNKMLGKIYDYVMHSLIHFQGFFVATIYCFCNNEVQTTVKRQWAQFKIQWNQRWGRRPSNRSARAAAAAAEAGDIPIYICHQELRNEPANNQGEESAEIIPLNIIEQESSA
T1 sequence (O60896 24-148 partner): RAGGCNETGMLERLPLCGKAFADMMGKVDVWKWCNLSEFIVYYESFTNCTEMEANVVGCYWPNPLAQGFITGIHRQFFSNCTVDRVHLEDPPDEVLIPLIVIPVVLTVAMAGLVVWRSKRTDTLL
Experimental: The apparent binding affinities were determined using a scintillation proximity assay with beads from PerkinElmer and cell membranes containing the AMY3R or CTRs. […] Membranes were harvested and membranes were prepared and kept at −80 °C until use. The assay was performed in a 384-well Optiplate (PerkinElmer). Membranes were mixed with scintillation proximity assay beads in a 1:1 ratio. […] Samples were analyzed on a TopCounter (Packard). The IC50 values were calculated using GraphPad Prism. See Supporting Information S7: SAR Screening Assay Methods (Binding Assays (Human and Rat)) for more information.
Binding Assays (Human and Rat). Brief descriptions of the methods used to determine binding affinities for SAR analysis are described below. Curves and IC50 values were plotted and calculated in GraphPad Prism using nonlinear regression (one site binding competition analysis), with pIC50 values […]
values were used to calculate the binding affinity ratios in order to express the selectivity of compounds for the AMY3R versus the CTR.
CTR Binding Assay. The binding assay was performed using scintillation proximity assay (SPA) beads (RPNQ0001) from PerkinElmer and cell membranes containing either the hCTR or rCTR. BHK […]
(§1) Membranes were prepared in the following way: the cells were rinsed with PBS and incubated with Versene for approximately 5 min before harvesting. The cells were flushed with PBS and the cell-suspension was centrifuged for 5 min at 1000 rpm. Cells were homogenized (Ultra Turrax) in a buffer […]
containing 20 mM Na-HEPES and 0.1 mM EDTA (pH 7.4, buffer 2). The resulting pellet was re-suspended in buffer 2 and protein concentration was measured (BCA protein assay, Pierce). The homogenate was kept cold during the whole procedure. The membranes were stored at –80 °C until […]
The binding assay was performed in a 384-well Optiplate (PerkinElmer) in a total volume of 40 μL.
Membranes were mixed with SPA beads in a 1:1 ratio. […]
mg/well. Test compounds were dissolved in DMSO and further diluted in assay buffer (50 mM HEPES, pH 7.4, 1 mM CaCl2, 5 mM MgCl2, 0.1% ovalbumin, and 0.02% Tween-20).
Calcitonin (NEX422 PerkinElmer) was dissolved in assay buffer and added to the Optiplate at a final […]
prior to centrifugation (1500 rpm, 10 min). Samples were analyzed on TopCounter (Packard).
AMY3R Binding Assay. The binding assay was performed using SPA beads (RPNQ0001) from PerkinElmer and cell membranes containing either the hAMY3R or rAMY3R. BHK tk-ts 13 cells were […]
as §1, with “and cultured as described above. Membranes” for “Membranes”, “buffer containing 20 mM Na-HEPES and 10 mM EDTA (pH 7.4), and” for “buffer”
The resulting pellet was re-suspended, homogenized, and
7.4, buffer 2). The resulting pellet was re-suspended in buffer 2 and protein concentration was measured (BCA protein assay, Pierce). The homogenate was kept cold during the whole procedure.
The membranes were stored at –80 °C until use.
Membranes were mixed with SPA beads in a 1:1 ratio. The final concentration of SPA beads was 0.05 mg/well. Test compounds were dissolved in DMSO and further diluted in assay buffer (50 mM […]
rAMY (NEX448 PerkinElmer) was dissolved in assay buffer and added to the Optiplate at a final

Row | HMWP [1] [%] | hAMY3R pIC50 (hAMY3R) | ratio hCTR/hAMY3R (hAMY3R) | IC50 (hAMY3R; SPA, BHK cell membranes, 125I-rat amylin, 120 min 25 °C, read-out: hAMY3R IC50) [nM] | SMILES
1 | 2.1 | 8.94 | 64 |  | CC[C@H](C)[C@H](NC(=O)[C@H](C)NC(=O)CNC(=O)[C@H](Cc1ccccc1)NC(=O)[C@H](CC(N)=O)NC(=O)[C@@H]1CCCN1C(=O)[C@H](CO)NC(=O)[C@H](CO)NC(=O)[C@H](Cc1c[nH]cn1)NC(=O)[C@H](CCCNC(=N)N)NC(=O)[C@H](CC(C)C)NC(=O)[C@H](Cc1ccccc1)NC(=O)[C@H](CC(N)=O)NC(=O)[C@H](C)NC(=O)[C@H](CC(C)C)NC(=O)[C@H](CCCNC(=N)N)NC(=O)[C@H](CCC(N)=O)NC(=O)[C@@H](NC(=O)[C@H](C)NC(=O)[C@@H]1CSSC[C@H](NC(=O)[C@H](CCCCN)NC(=O)CC[C@H](NC(=O)CCCCCCCCCCCCCCCCCCC(=O)O)C(=O)O)C(=O)N[C@@H](CC(N)=O)C(=O)N[C@@H]([C@@H](C)O)C(=O)N[C@@H](C)C(=O)N[C@@H]([C@@H](C)O)C(=O)N1)[C@@H](C)O)C(=O)N1CCC[C@H]1C(=O)N[C@@H](CO)C(=O)N[C@@H](CO)C(=O)N[C@H](C(=O)N[C@@H](CC(N)=O)C(=O)N[C@H](C(=O)NCC(=O)N[C@@H](CO)C(=O)N[C@@H](CCCCN)C(=O)N[C@H](C(=O)N[C@@H](Cc1ccc(O)cc1)C(N)=O)[C@@H](C)O)C(C)C)[C@@H](C)O [Peptide 13]
2 | 2.2 | 9.18 | 29 | 0.662 | CC[C@H](C)[C@H](NC(=O)[C@H](C)NC(=O)CNC(=O)[C@H](Cc1ccccc1)NC(=O)[C@H](CC(N)=O)NC(=O)[C@@H]1CCCN1C(=O)[C@H](CO)NC(=O)[C@H](CO)NC(=O)[C@H](Cc1c[nH]cn1)NC(=O)[C@H](CCCNC(=N)N)NC(=O)[C@H](CC(C)C)NC(=O)[C@H](Cc1ccccc1)NC(=O)[C@H](CC(N)=O)NC(=O)[C@H](C)NC(=O)[C@H](CC(C)C)NC(=O)[C@H](CCCNC(=N)N)NC(=O)[C@H](CCC(N)=O)NC(=O)[C@@H](NC(=O)[C@H](C)NC(=O)[C@@H]1CSSC[C@H](NC(=O)[C@H](CCCCN)NC(=O)CC[C@H](NC(=O)CCCCCCCCCCCCCCCCCCC(=O)O)C(=O)O)C(=O)N[C@@H](CC(N)=O)C(=O)N[C@@H]([C@@H](C)O)C(=O)N[C@@H](C)C(=O)N[C@@H]([C@@H](C)O)C(=O)N1)[C@@H](C)O)C(=O)N1CCC[C@H]1C(=O)N[C@@H](CO)C(=O)N[C@@H](CO)C(=O)N[C@H](C(=O)N[C@@H](CC(N)=O)C(=O)N[C@H](C(=O)NCC(=O)N[C@@H](CCCNC(=N)N)C(=O)N[C@@H](CC(N)=O)C(=O)N[C@H](C(=O)N[C@@H](Cc1ccc(O)cc1)C(N)=O)[C@@H](C)O)C(C)C)[C@@H](C)O [Peptide 16]
3 | 4.9 |  | 31 |  | CC[C@H](C)[C@H](NC(=O)[C@H](C)NC(=O)CNC(=O)[C@H](Cc1ccccc1)NC(=O)[C@H](CC(N)=O)NC(=O)[C@@H]1CCCN1C(=O)[C@H](CO)NC(=O)[C@H](CO)NC(=O)[C@H](Cc1c[nH]cn1)NC(=O)[C@H](CCCNC(=N)N)NC(=O)[C@H](CC(C)C)NC(=O)[C@H](Cc1ccccc1)NC(=O)[C@H](CCC(=O)O)NC(=O)[C@H](C)NC(=O)[C@H](CC(C)C)NC(=O)[C@H](CCCNC(=N)N)NC(=O)[C@H](CCC(N)=O)NC(=O)[C@@H](NC(=O)[C@H](C)NC(=O)[C@@H]1CSSC[C@H](NC(=O)[C@@H](N)CCCCNC(=O)CC[C@H](NC(=O)CCCCCCCCCCCCCCCCCCC(=O)O)C(=O)O)C(=O)N[C@@H](CC(N)=O)C(=O)N[C@@H]([C@@H](C)O)C(=O)N[C@@H](C)C(=O)N[C@@H]([C@@H](C)O)C(=O)N1)[C@@H](C)O)C(=O)N1CCC[C@H]1C(=O)N[C@@H](CO)C(=O)N[C@@H](CO)C(=O)N[C@H](C(=O)N[C@@H](CC(N)=O)C(=O)N[C@H](C(=O)NCC(=O)N[C@@H](CO)C(=O)N[C@@H](CCCNC(=N)N)C(=O)N[C@H](C(=O)N[C@@H](Cc1ccc(O)cc1)C(N)=O)[C@@H](C)O)C(C)C)[C@@H](C)O [Peptide 20] (H-K([γGlu-C20 diacid])CNTATCATQRLAEFLRHSSPNFGAIPSSTNVGSRTY-NH2; disulfide 2-7)

Row | SMILES | HMWP [1] [%] | hAMY3R pIC50 (hAMY3R) | ratio hCTR/hAMY3R (hAMY3R) | IC50 (hAMY3R; SPA, BHK cell membranes, 125I-rat amylin, 120 min 25 °C, read-out: hAMY3R IC50) [nM]
4 | CC[C@H](C)[C@H](NC(=O)[C@H](C)NC(=O)CNC(=O)[C@H](Cc1ccccc1)NC(=O)[C@H](CC(N)=O)NC(=O)[C@@H]1CCCN1C(=O)[C@H](CO)NC(=O)[C@H](CO)NC(=O)[C@H](Cc1c[nH]cn1)NC(=O)[C@H](CCCNC(=N)N)NC(=O)[C@H](CC(C)C)NC(=O)[C@H](Cc1ccccc1)NC(=O)[C@H](CC(=O)O)NC(=O)[C@H](C)NC(=O)[C@H](CC(C)C)NC(=O)[C@H](CCCNC(=N)N)NC(=O)[C@H](CCC(N)=O)NC(=O)[C@@H](NC(=O)[C@H](C)NC(=O)[C@@H]1CSSC[C@H](NC(=O)[C@@H](N)CCCCNC(=O)CC[C@H](NC(=O)CC[C@H](NC(=O)CCCCCCCCCCCCCCCCCCC(=O)O)C(=O)O)C(=O)O)C(=O)N[C@@H](CC(N)=O)C(=O)N[C@@H]([C@@H](C)O)C(=O)N[C@@H](C)C(=O)N[C@@H]([C@@H](C)O)C(=O)N1)[C@@H](C)O)C(=O)N1CCC[C@H]1C(=O)N[C@@H](CO)C(=O)N[C@@H](CO)C(=O)N[C@H](C(=O)N[C@@H](CC(N)=O)C(=O)N[C@H](C(=O)NCC(=O)N[C@@H](CO)C(=O)N[C@@H](CCCNC(=N)N)C(=O)N[C@H](C(=O)N[C@@H](Cc1ccc(O)cc1)C(N)=O)[C@@H](C)O)C(C)C)[C@@H](C)O [NN1213] | 0.9 |  | 74 | 
